Experimental data: patent EP4685142A1, “TRIAZINE COMPOUND AND USE THEREOF” (Chengdu Zenitar Biomedical Technology Co., Ltd., priority 2023, dated 2024)
Where two headings read alike, the source gives them in different places.

Tests used:
[1] = molecular target: T1, hERG potassium ion channel (Homo sapiens, UniProt Q12809); assay: Inhibition of hERG potassium ion channel (CHO cells stably expressing hERG, Qpatch)
Protocol: (§1) Inhibition experiment of compounds on hERG potassium ion channel
(§2) Cell culture and treatment: CHO cells stably expressing hERG were cultured in cell culture flasks and incubated in a 5% CO2 incubator at 37°C. When a cell density reached 60%-80%, the cell culture medium was aspirated, washed once with PBS, and then digested with Detachin. After digestion, the grown cells were neutralized in the cell culture medium, and then centrifuged, the supernatant was aspirated, the cell culture medium was added again to resuspend the grown cells, and the cell density was adjusted to 2-5×10^6 cells/mL for later use.
(§3) Compound preparation: the compound stock solution was diluted in 100% DMSO, that is, 10 µL compound stock solution was serially diluted in 20 µL DMSO by 3 folds to obtain six concentrations. Six concentrations of the compound (4 µL for each concentration) were diluted in 396 µL extracellular fluid by 100 folds to obtain six intermediate concentrations. Six intermediate concentrations of the compound (80 µL for each concentration) were diluted in 320 µL extracellular fluid by 5 folds to obtain final concentrations to be tested. […] DMSO in a final test concentration was not more than 0.2%, and DMSO at this concentration had no effect on the hERG potassium channel. The entire dilution process for compound preparation was performed using Bravo instrument.
(§4) Electrophysiological recording process: the processes of single-celled high-impedance sealing and whole-cell mode formation were all automatically completed by Qpatch instrument, under the whole-cell recording mode, the cells were clamped at -80 mV, before 5-second + 40 mV depolarization stimulus, the cells were given 50-millisecond - 50 mV pre-voltage, followed by repolarization to -50 mV for 5 seconds, and then returning to -80 mV. The voltage stimulus was given every 15 seconds, after 2 minutes of recording, extracellular fluid was recorded for 5 min, and then a drug was administrated, started from a lowest test concentration, each test concentration of the compound was given for 2.5 minutes, after all concentrations were given consecutively, a positive control compound Cisapride (3 µM) was given. At least 3 cells were tested for each concentration (n≥3).
(§5) Data processing: data analysis and processing were performed using GraphPad Prism 5.0 and Excel software. IC50 values of the compounds were calculated by fitting with the following equation using GraphPad Prism 5 software: Y = Bottom + (Top−Bottom)/(1+10^(∧)((LogIC50−X)*HillSlope)); [formula] where X is the Log value of the test sample concentration, Y is an inhibition percentage at a corresponding concentration, and Bottom and Top are the minimum and maximum inhibition percentages, respectively.

[2] = molecular target: T1, hERG potassium ion channel
Protocol: as §1, §2, §3, §4, §5

NLRP3 inflammasome = molecular target: T2, NLRP3 inflammasome (Homo sapiens, UniProt Q96P20); assay: Inhibitory activity of NLRP3 inflammasome in human monocytes (THP-1 cells, LPS + Nigericin, IL-1β ELISA); format: cell-based
T2 construct: host or cells: THP-1 cells
Protocol: 1. Determination of inhibitory activity of NLRP3 inflammasome in human monocytes
Experimental method: THP-1 cells were cultured in RPMI culture medium containing PMA (10 µM), and then inoculated in 48-well plates at a density of 2×10^5 cells/mL, the plates were incubated overnight in a 5% CO2 incubator at 37°C. The next day, the above culture medium was replaced with Opti-MEM culture medium containing 1 µg/mL LPS. After 3 hours, the grown cells were simulated for 40 min with a drug, and then simulated for 40 min with Nigericin (10 µM), and a cell supernatant was harvested for ELISA analysis.
Table 2 Inhibitory activity of NLRP3 inflammasome

[3] = Pharmacokinetic evaluation in Balb/c mice; format: in vivo; conditions: mouse, in vivo, 5 mg/kg
Excerpt: 4. Pharmacokinetic evaluation of compounds in Balb/c mice
Experimental purpose: to understand pharmacokinetic properties of the compounds.
Experimental basis: Technical Guidelines for Nonclinical Pharmacokinetic Studies of Chemical Drugs, 2014.
Experimental protocol: the pharmacokinetic properties of the compounds were investigated via intravenous administration and intragastric administration in Balb/c mice.
The blood drug concentration was quantitatively analyzed by LC-MS/MS, and pharmacokinetic parameters were calculated, such as peak concentration (Cmax), area under the concentration-time curve (AUC(0-t)), half-life (T1/2), clearance (CL), volume of distribution at steady state (Vdss), and bioavailability (F).
The results of pharmacokinetic evaluation are shown in Table 5 below: Table 5 Pharmacokinetic test results of compounds in Balb/c mice

[4] = In vivo brain-to-plasma ratio in mice; conditions: for Brain / Plasma: male mice, oral 10 mg/kg
Protocol: Evaluation of in vivo brain-to-plasma ratio of compound
Experimental purpose: to obtain the brain-to-plasma ratio of the compound
Experimental protocol: the brain-to-plasma ratio of the compound was investigated by monitoring the content of the compound in mouse brain and plasma.
Experimental procedure: the compound was weighed, followed by adding a small amount of DMSO and adding a sodium chloride solution for injection, to prepare a 10 mg · mL^-1 compound solution for administration. Male mice were orally administered at 10 mg · kg^-1, and whole plasma and whole brain tissue were sampled at 1 h and 6 h after administration (n=3). […] A centrifuge tube was weighed as M1, the centrifuge tube containing the whole brain tissue was weighed as M2, the centrifuge tube containing water for homogenization was weighed as M3, and the centrifuge tube after the removal of 30 µL homogenate was weighed as M4.
Standard curve range: 10-10,000 ng·mL^-1. Content of drug in brain = measured value × 0.03 × (M3−M1)/[(M2−M1)×(M3−M4)].

LPS-induced mice = assay: LPS-induced mouse model, survival; format: in vivo, Balb/c mice; conditions: for survival status of mice (mice alive) 12h / survival status of mice (mice alive) 24h / survival status of mice (mice alive) 36h / survival status of mice (mice alive) 48h / survival status of mice (mice alive) 72h: 25 mg/kg
[5] = THP-1 cells, PMA, LPS 1 µg/mL 3 h, drug 40 min, Nigericin 10 µM 40 min, IL-1β ELISA, read-out: IC50
[6] = PO, Balb/c mice, read-out: AUC(0-t)
[7] = PO, Balb/c mice, read-out: Cmax
[8] = PO, Balb/c mice, read-out: T1/2 (converted)
[9] = male, mouse, brain/plasma, po, 10 mg/kg
[10] = male, mouse, plasma, po, 10 mg/kg

T2 sequence (Q96P20 whole entry): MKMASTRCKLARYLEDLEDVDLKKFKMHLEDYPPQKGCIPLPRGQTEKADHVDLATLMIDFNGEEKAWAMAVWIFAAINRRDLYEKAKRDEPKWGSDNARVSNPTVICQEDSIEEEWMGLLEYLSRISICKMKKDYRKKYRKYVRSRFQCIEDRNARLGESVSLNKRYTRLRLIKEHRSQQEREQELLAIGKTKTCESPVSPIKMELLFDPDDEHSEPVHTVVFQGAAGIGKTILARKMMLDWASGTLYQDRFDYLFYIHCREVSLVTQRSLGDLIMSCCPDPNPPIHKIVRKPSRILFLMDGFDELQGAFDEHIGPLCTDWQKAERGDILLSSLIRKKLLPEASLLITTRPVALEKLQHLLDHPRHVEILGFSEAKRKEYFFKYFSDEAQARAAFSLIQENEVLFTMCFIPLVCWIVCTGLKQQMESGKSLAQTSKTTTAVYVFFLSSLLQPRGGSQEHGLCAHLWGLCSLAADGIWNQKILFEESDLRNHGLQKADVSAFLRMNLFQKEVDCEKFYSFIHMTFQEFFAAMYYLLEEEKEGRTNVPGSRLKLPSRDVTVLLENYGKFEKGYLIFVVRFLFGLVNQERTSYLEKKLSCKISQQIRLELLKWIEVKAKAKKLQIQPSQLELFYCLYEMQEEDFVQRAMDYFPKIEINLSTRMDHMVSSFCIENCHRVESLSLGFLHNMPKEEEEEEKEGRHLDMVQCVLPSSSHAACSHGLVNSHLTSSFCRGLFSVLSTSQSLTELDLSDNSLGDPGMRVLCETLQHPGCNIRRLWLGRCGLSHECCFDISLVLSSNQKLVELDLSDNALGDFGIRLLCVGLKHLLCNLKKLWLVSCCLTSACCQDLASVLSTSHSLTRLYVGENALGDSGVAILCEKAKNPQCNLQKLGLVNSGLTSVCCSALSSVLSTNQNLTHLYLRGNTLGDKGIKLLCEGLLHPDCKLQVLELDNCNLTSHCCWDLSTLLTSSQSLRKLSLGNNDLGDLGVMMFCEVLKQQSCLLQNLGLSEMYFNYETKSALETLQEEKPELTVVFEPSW
T1 sequence (Q12809 whole entry): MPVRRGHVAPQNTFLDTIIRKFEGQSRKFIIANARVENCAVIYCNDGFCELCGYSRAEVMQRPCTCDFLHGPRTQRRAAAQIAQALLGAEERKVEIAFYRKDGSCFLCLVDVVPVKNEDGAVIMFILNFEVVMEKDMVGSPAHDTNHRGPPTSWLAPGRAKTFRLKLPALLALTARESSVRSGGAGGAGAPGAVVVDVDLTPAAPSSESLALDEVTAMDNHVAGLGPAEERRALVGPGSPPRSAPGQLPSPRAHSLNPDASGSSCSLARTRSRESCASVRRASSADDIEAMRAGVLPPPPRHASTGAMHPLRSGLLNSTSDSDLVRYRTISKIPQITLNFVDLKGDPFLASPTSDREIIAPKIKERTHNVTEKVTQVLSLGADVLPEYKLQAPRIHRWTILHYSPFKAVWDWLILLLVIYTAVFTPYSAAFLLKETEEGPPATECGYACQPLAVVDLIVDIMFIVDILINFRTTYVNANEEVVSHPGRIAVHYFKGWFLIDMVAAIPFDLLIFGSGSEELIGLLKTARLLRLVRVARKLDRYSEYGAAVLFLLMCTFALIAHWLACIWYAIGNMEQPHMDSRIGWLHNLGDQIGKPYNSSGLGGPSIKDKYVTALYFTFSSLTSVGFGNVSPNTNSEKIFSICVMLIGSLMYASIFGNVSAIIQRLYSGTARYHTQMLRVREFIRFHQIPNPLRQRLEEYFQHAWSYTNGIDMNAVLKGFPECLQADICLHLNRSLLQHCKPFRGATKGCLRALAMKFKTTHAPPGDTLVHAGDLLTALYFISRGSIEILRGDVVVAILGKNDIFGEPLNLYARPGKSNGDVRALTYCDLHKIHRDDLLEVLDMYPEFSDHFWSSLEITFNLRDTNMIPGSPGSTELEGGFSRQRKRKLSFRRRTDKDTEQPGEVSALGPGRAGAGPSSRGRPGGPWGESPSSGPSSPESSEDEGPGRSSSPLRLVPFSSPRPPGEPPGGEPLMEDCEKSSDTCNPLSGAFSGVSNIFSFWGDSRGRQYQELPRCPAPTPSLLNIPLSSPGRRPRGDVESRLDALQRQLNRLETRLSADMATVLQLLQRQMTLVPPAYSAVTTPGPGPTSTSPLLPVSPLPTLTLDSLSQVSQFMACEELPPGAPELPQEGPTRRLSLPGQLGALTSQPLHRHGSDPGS

Compound | IC50 (NLRP3 inflammasome; [5]) [nM] | IC50 (NLRP3 inflammasome) [nM] | AUC(0-t) [3, 6] [ng·h/mL] | Cmax [3, 7] [ng/mL] | half-life [3, 8] [h] | further results
Cn1c(-c2ccc3sccc3c2O)nnc(N[C@@H]2CCCN(C3CC3)C2)c1=O [Compound 16, (R)-6-((1-cyclopropylpiperidin-3-yl)amino)-3-(4-hydroxybenzo[b]thiophen-5-yl)-4-methyl-1,2,4-triazin-5(4H)-ketone] | 1.62 | – | – | – | – | 20 uM Inhibition ratio [1]: 35.63%; inhibitory effects on the hERG potassium ion channel (conclusion in words) ([2]; human): Conclusion: compounds 3, 4, 5, 9, 16, 17, 24, 30, 40, 41, 42, 43, 54 and others have weak inhibitory effects on the hERG potassium ion channel, having weaker inhibitory effect than the reference compound Ref-1.
C#Cc1ccc(-c2nnc(N[C@@H]3CCCN(C)C3)c(=O)n2C)c(O)c1 [Compound 24, (R)-3-(4-ethynyl-2-hydroxyphenyl)-4-methyl-6-((1-methylpiperidin-3-yl)amino)-1,2,4-triazin-5(4H)-ketone] | 12 | – | – | – | – | 20 uM Inhibition ratio [1]: 6.83%; inhibitory effects on the hERG potassium ion channel (conclusion in words) ([2]; human): Conclusion: compounds 3, 4, 5, 9, 16, 17, 24, 30, 40, 41, 42, 43, 54 and others have weak inhibitory effects on the hERG potassium ion channel, having weaker inhibitory effect than the reference compound Ref-1.
COCCn1c(-c2ccc3sccc3c2O)nnc(N[C@@H]2CCCN(C)C2)c1=O [Compound 51, 3-(4-hydroxybenzo[b]thiophen-5-yl)-6-{[(3R)-1-methylpiperidin-3-yl]amino}-4-(2-methoxyethyl)-4H,5H-1,2,4-triazin-5-ketone] | – | 180 | 9780 | 2940 | 2.39 | –
CCN1C[C@H](F)C[C@@H](Nc2nnc(-c3ccc(C4CC4)cc3O)n(C)c2=O)C1 [Compound 53, 3-(4-cyclopropyl-2-hydroxyphenyl)-6-(((3R,5R)-1-ethyl-5-fluoropiperidin-3-yl)amino)-4-met hyl-1,2,4-triazin-5 (4H)-ketone] | – | 18.7 | 1400 | 1420 | 3.85 | –
CN1CCC[C@@H](Nc2nnc(-c3ccc4c(c3O)CCC4=C(F)F)n(C)c2=O)C1 [Compound 13, (R)-3-(1-(difluoromethylene)-4-hydroxy-2,3-dihydro-1H-inden-5-yl)-4-methyl-6-((1-methylpiperidin-3-yl)amino)-1,2,4-triazin-5 (4H)-ketone] | – | 1.36 | 98700 | 11400 | 5.47 | –
CN1CCC[C@@H](Nc2nnc(-c3ccc(C(F)(F)F)cc3O)n(C)c2=O)C1 [Ref-3, reference compound] | 6.49 | – | 1820 | 1140 | 0.87 | –
[2H]C([2H])([2H])n1c(-c2ccc3sccc3c2O)nnc(N[C@@H]2CCCN(CC)C2)c1=O [Compound 55, (R)-6-((1-ethylpiperidin-3-yl)amino)-3-(4-hydroxybenzo[b]thiophen-5-yl)-4-(methyl-d3)-1,2,4-triazin-5(4H)-ketone] | – | 3.5 | 7450 | 1710 | 2.91 | –
CCN1CCC[C@@H](Nc2nnc(-c3ccc4c(c3O)CCC4=C(F)F)n(C)c2=O)C1 [Compound 2, (R)-3-(1-(difluoromethylene)-4-hydroxy-2,3-dihydro-1H-inden-5-yl)-6-((1-ethylpiperidin-3-y 1)amino)-4-methyl-1,2,4-triazin-5(4H)-ketone] | – | 4.86 | 15200 | 2690 | 2.82 | –
CCN1CCC[C@@H](Nc2nnc(-c3ccc4sccc4c3O)n(CC)c2=O)C1 [Compound 12, (R)-4-ethyl-6-((1-ethylpiperidin-3-yl)amino)-3-(4-hydroxybenzo[b]thiophen-5-yl)-1,2,4-triazi n-5(4H)-ketone] | 7.2 | – | – | – | – | Brain ([4]; 1 h): 498 ng/g; Brain ([4]; 6 h): 215 ng/g; Kp at 1 h [4, 9]: 0.13; Kp at 6 h [4, 9]: 0.13; concentration at 1 h [4, 10]: 3840 ng/mL; concentration at 6 h [4, 10]: 1700 ng/mL; 20 uM Inhibition ratio [1]: 52.99%; AUC(0-t) ([3]; male, Balb/c, po): 12800 ng·h/mL; Cmax ([3]; male, Balb/c, po): 2740 ng/mL; half-life ([3]; male, Balb/c, po): 3.08 h
CN1C[C@H](F)C[C@@H](Nc2nnc(-c3ccc4sc(F)cc4c3O)n(C)c2=O)C1 [Compound 52, 3-(2-fluoro-4-hydroxybenzo[b]thiophen-5-yl)-6-{[(3R,5R)-5-fluoro-1-methylpiperidin-3-yl]amino}-4-methyl-4H,5H-1,2,4-triazin-5-ketone] | – | 5.06 | 21400 | 8570 | 3.16 | –
CC(C)n1c(-c2ccc3sccc3c2O)nnc(N[C@@H]2CCCN(C)C2)c1=O [Compound 54, (R)-3-(4-hydroxybenzo[b]thiophen-5-yl)-4-isopropyl-6-((1-methylpiperidin-3-yl)amino)-1,2,4-triazin-5(4H)-ketone] | – | – | 7470 | 1550 | 4.25 | 20 uM Inhibition ratio [2]: 7.77%; inhibitory effects on the hERG potassium ion channel (conclusion in words) [2]: Conclusion: compounds 3, 4, 5, 9, 16, 17, 24, 30, 40, 41, 42, 43, 54 and others have weak inhibitory effects on the hERG potassium ion channel, having weaker inhibitory effect than the reference compound Ref-1.
[2H]C([2H])([2H])C([2H])([2H])N1CCC[C@@H](Nc2nnc(-c3ccc4sccc4c3O)n(C)c2=O)C1 [Compound 6, (R)-6-((1-(ethyl-d5)piperidin-3-yl)amino)-3-(4-hydroxybenzo[b]thiophen-5-yl)-4-methyl-1,2,4-triazin-5(4H)-ketone] | – | 3.01 | 8300 | 1340 | 3.18 | –
Cn1c(-c2ccc3sccc3c2O)nnc(N[C@@H]2CCCN(CC3CC3)C2)c1=O [Compound 8, (R)-6-((1-(cyclopropylmethyl)piperidin-3-yl)amino)-3-(4-hydroxybenzo[b]thiophen-5-yl)-4-methyl-1,2,4-triazin-5(4H)-ketone] | 1.92 | – | – | – | – | 20 uM Inhibition ratio [1]: 69.48%
C#Cc1ccc(-c2nnc(N[C@@H]3CCCC[C@H]3O)c(=O)n2C)c(O)c1 [Compound 31, 3-(4-ethynyl-2-hydroxyphenyl)-6-(((1R,2R)-2-hydroxycyclohexyl)amino)-4-methyl-1,2,4-tria zin-5(4H)-ketone] | – | – | – | – | – | IC50 (NLRP3 inflammasome; read-out: IC50): 3.64 nM
Cc1nc(N[C@@H]2CCCC[C@H]2O)nnc1-c1ccc(C(F)(F)F)cc1O [Ref-2, reference compound] | – | 14.7 | 270 | 246 | 2.6 | Brain ([4]; 1 h): 168 ng/g; Plasma ([4]; 1 h): 264 ng/mL; Plasma ([4]; 6 h): 8.27 ng/mL; Kp at 1 h ([4]; mouse, brain, po, 10 mg/kg): 0.63; Kp at 6 h ([4]; mouse, brain, po, 10 mg/kg): 0.17; 72h Survival rate (LPS-induced mice; 25 mg/kg oral, 1 h before 10 mg/kg LPS i.p.): 50%; survival status of mice (mice alive) 12h (LPS-induced mice; First cage (5 mice)): 5; survival status of mice (mice alive) 24h (LPS-induced mice; First cage (5 mice)): 5; survival status of mice (mice alive) 36h (LPS-induced mice; First cage (5 mice)): 4; survival status of mice (mice alive) 48h (LPS-induced mice; First cage (5 mice)): 2; survival status of mice (mice alive) 72h (LPS-induced mice; First cage (5 mice)): 2; survival status of mice (mice alive) 12h (LPS-induced mice; Second cage (5 mice)): 5; survival status of mice (mice alive) 24h (LPS-induced mice; Second cage (5 mice)): 4; survival status of mice (mice alive) 36h (LPS-induced mice; Second cage (5 mice)): 4; survival status of mice (mice alive) 48h (LPS-induced mice; Second cage (5 mice)): 3; survival status of mice (mice alive) 72h (LPS-induced mice; Second cage (5 mice)): 3
CC(C)N1CCC[C@@H](Nc2nnc(-c3ccc4sccc4c3O)n(C)c2=O)C1 [Compound 36] | – | 1.55 | 3320 | 1510 | 1.24 | –
